Source: patent publication US9115147B2, “Tricyclic derivatives and their pharmaceutical use and compositions” (Cephalon, Inc., priority 2009, dated 2015)

tested on: rats; test: not given; conditions: compared to an untreated control group; cited from earlier work

| Structure (SMILES) | non-REM (NREM) sleep |
| --- | --- |
| CN1CCN(c2cccc3c(S(=O)(=O)c4ccccc4)c[nH]c23)CC1 [RO 4368554] | increase |

tested on: rats; test: not given; conditions: rat model of tonic, persistent pain; cited from earlier work

| Structure (SMILES) | antinociceptive effect |
| --- | --- |
| COc1ccc(NS(=O)(=O)c2sc3ccc(Cl)cc3c2C)cc1N1CCNCC1 [SB-271046] | short-lived, antinociceptive effect |

target: T1, human 5-HT6 receptor (Homo sapiens, UniProt P50406); test: Human 5-HT6 Receptor Binding Assay ([3H]LSD, scintillation beads); conditions: actual data; membranes of CHO-K1 cells with recombinant human 5-HT6 receptor, 4 nM [3H]LSD; read-out: Human 5-HT6 Ki
T1 construct: host or cells: CHO-K1 cells, stably transfected; membranes prepared in house
Outline: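 Membranes from CHO-K1 cells stably expressing human 5-HT6, 1.75 μg protein/well with scintillation beads, in 50 mM Tris pH 7.4, 4 mM CaCl2, saponin, ascorbic acid. Nonspecific binding with 10 μM serotonin. IC50 from variable-slope fit; Ki by Cheng-Prusoff.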

T1 sequence (P50406 whole entry): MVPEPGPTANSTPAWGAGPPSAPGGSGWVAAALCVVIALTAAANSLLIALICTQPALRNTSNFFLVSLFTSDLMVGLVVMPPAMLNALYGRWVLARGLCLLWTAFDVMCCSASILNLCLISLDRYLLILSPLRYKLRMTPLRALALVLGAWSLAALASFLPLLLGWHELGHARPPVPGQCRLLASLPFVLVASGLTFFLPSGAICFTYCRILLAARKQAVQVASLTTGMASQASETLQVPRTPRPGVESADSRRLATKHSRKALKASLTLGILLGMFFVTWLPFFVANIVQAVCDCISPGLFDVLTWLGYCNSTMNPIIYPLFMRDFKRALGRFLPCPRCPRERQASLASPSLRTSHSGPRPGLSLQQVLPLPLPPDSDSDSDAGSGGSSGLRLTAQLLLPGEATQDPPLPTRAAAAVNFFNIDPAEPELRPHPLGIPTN

| Structure (SMILES) | Ki [nM] |
| --- | --- |
| O=S(=O)(c1ccccc1)c1ccc2c(c1)OCC1C2CCN1CCO (single isomer, unassigned) [Example 97, 2-[7-(phenylsulfonyl)-1,3a,4,9b-tetrahydrochromeno[3,4-b]pyrrol-3(2H)-yl]ethanol] | 221 |

same assay, conditions: membranes of CHO-K1 cells with recombinant human 5-HT6 receptor, 4 nM [3H]LSD, Cheng-Prusoff; read-out: Human 5-HT6 Ki app

| Structure (SMILES) | Ki [nM] |
| --- | --- |
| Cc1cccc([S+]([O-])c2ccc3c(c2)OCC2C3CCN2C2CCC2)n1 (single isomer, unassigned) [Example 83, 3-cyclobutyl-7-[(6-methylpyridin-2-yl)sulfinyl]-1,2,3,3a,4,9b-hexahydrochromeno[3,4-b]pyrrole] | > 1000 |
| Cc1cccc(S(=O)(=O)c2ccc3c(c2)OCC2C3CCN2C2CCC2)n1 (single isomer, unassigned) [Example 84, 3-cyclobutyl-7-[(6-methylpyridin-2-yl)sulfonyl]-1,2,3,3a,4,9b-hexahydrochromeno[3,4-b]pyrrole] | > 1000 |
| Cc1cccc(S(=O)(=O)c2ccc3c(c2)OCC2C3CCN2C2CCC2)n1 (single isomer, unassigned) [Example 85, 3-cyclobutyl-7-[(6-methylpyridin-2-yl)sulfonyl]-1,2,3,3a,4,9b-hexahydrochromeno[3,4-b]pyrrole] | > 1000 |
| O=S(=O)(c1cncc(C(F)(F)F)c1)c1ccc2c(c1)OCC1C2CCN1C1CCC1 (single isomer, unassigned) [Example 86, 3-cyclobutyl-7-{[5-(trifluoromethyl)pyridin-3-yl]sulfonyl}-1,2,3,3a,4,9b-hexahydrochromeno[3,4-b]pyrrole] | > 1000 |
| O=S(=O)(c1cncc(C(F)(F)F)c1)c1ccc2c(c1)OCC1C2CCN1C1CCC1 (single isomer, unassigned) [Example 87, 3-cyclobutyl-7-{[5-(trifluoromethyl)pyridin-3-yl]sulfonyl}-1,2,3,3a,4,9b-hexahydrochromeno[3,4-b]pyrrole] | > 1000 |
| O=S(=O)(c1ccccc1)c1ccc2c(c1)C1CCN(C3CCC3)C1CO2 (single isomer, unassigned) [Example 88, 3-cyclobutyl-8-(phenylsulfonyl)-1,2,3,3a,4,9b-hexahydrochromeno[3,4-b]pyrrole] | < 500 |
| O=S(=O)(c1ccccc1)c1ccc2c(c1)C1CCN(C3CCC3)C1CO2 (single isomer, unassigned) [Example 89, 3-cyclobutyl-8-(phenylsulfonyl)-1,2,3,3a,4,9b-hexahydrochromeno[3,4-b]pyrrole] | < 500 |
| O=S(=O)(c1ccccc1)c1ccc2c(c1)OCC1C2CCN1CCO (single isomer, unassigned) [Example 90, 2-[7-(Phenylsulfonyl)-1,3a,4,9b-tetrahydrochromeno[3,4-b]pyrrol-3(2H)-yl]ethanol] | < 500 |
| CC(C)CN1CCC2c3ccc(S(=O)(=O)c4ccccc4)cc3OCC21 (single isomer, unassigned) [Example 91, 3-(2-methylpropyl)-7-(phenylsulfonyl)-1,2,3,3a,4,9b-hexahydrochromeno[3,4-b]pyrrole] | < 500 |
| COCCN1CCC2c3ccc(S(=O)(=O)c4ccccc4)cc3OCC21 (single isomer, unassigned) [Example 92, 3-(2-methoxyethyl)-7-(phenylsulfonyl)-1,2,3,3a,4,9b-hexahydrochromeno[3,4-b]pyrrole] | < 500 |
| O=S(=O)(c1ccccc1)c1ccc2c(c1)OCC1C2CCN1CCCO (single isomer, unassigned) [Example 93, 3[7-(phenylsulfonyl)-1,3a,4,9b-tetrahydrochromeno[3,4-b]pyrrol-3(2H)-yl]propan-1-ol] | < 500 |
| CC(C)CCCN1CCC2c3ccc(S(=O)(=O)c4ccccc4)cc3OCC21 (single isomer, unassigned) [Example 94, 3-(4-methylpentyl)-7-(phenylsulfonyl)-1,2,3,3a,4,9b-hexahydrochromeno[3,4-b]pyrrole] | < 500 |
| O=S(=O)(c1ccccc1)c1ccc2c(c1)OCC1C2CCN1Cc1ccccc1 (single isomer, unassigned) [Example 95, 3-benzyl-7-(phenylsulfonyl)-1,2,3,3a,4,9b-hexahydrochromeno[3,4-b]pyrrole] | < 500 |
| O=S(=O)(c1ccccc1)c1ccc2c(c1)OCC1C2CCN1CCc1ccccc1 (single isomer, unassigned) [Example 96, 3-(2-phenylethyl)-7-(phenylsulfonyl)-1,2,3,3a,4,9b-hexahydrochromeno[3,4-b]pyrrole] | < 500 |
| O=S(=O)(c1ccccc1)c1ccc2c(c1)OCC1C2CCN1CCO (single isomer, unassigned) [Example 97, 2-[7-(phenylsulfonyl)-1,3a,4,9b-tetrahydrochromeno[3,4-b]pyrrol-3(2H)-yl]ethanol] | < 500 |
| CC(C)CN1CCC2c3ccc(S(=O)(=O)c4ccccc4)cc3OCC21 (single isomer, unassigned) [Example 98, 3-(2-methylpropyl)-7-(phenylsulfonyl)-1,2,3,3a,4,9b-hexahydrochromeno[3,4-b]pyrrole] | > 1000 |
| COCCN1CCC2c3ccc(S(=O)(=O)c4ccccc4)cc3OCC21 (single isomer, unassigned) [Example 99, 3-(2-methoxyethyl)-7-(phenylsulfonyl)-1,2,3,3a,4,9b-hexahydrochromeno[3,4-b]pyrrole] | > 1000 |
| O=S(=O)(c1ccccc1)c1ccc2c(c1)OCC1C2CCN1CCCO (single isomer, unassigned) [Example 100, 3-[7-(phenylsulfonyl)-1,3a,4,9b-tetrahydrochromeno[3,4-b]pyrrol-3(2H)-yl]propan-1-ol] | < 500 |
| CC(C)CCCN1CCC2c3ccc(S(=O)(=O)c4ccccc4)cc3OCC21 (single isomer, unassigned) [Example 101, 3-(4-methylpentyl)-7-(phenylsulfonyl)-1,2,3,3a,4,9b-hexahydrochromeno[3,4-b]pyrrole] | > 1000 |
| O=S(=O)(c1ccccc1)c1ccc2c(c1)OCC1C2CCN1Cc1ccccc1 (single isomer, unassigned) [Example 102, 3-benzyl-7-(phenylsulfonyl)-1,2,3,3a,4,9b-hexahydrochromeno[3,4-b]pyrrole] | > 1000 |
| O=S(=O)(c1ccccc1)c1ccc2c(c1)OCC1C2CCN1CCc1ccccc1 (single isomer, unassigned) [Example 103, 3-(2-phenylethyl)-7-(phenylsulfonyl)-1,2,3,3a,4,9b-hexahydrochromeno[3,4-b]pyrrole] | > 1000 |
| CC(C)Oc1cc(F)cc(S(=O)(=O)c2ccc3c(c2)OCC2NCCC32)c1 (single isomer, unassigned) [Example 108, 7-{[3-fluoro-5-(propan-2-yloxy)phenyl]sulfonyl}-1,2,3,3a,4,9b-hexahydrochromeno[3,4-b]pyrrole] | < 500 |
